Measured values as given in patent US6613931B1 (priority 1999, dated 2003).

Key:
[1] = system: Lemna paucicostata; assay: Herbicidal action: growth inhibition of duck weed (Lemna); assay type: in vivo; settings: Lemna aequinoctialis, increase in leaf area after 8-10 days, 25° C., permanent light, read-out: Growth inhibition (% relative to the control)
Method: The herbicidal action of the compounds according to the invention is investigated using the representative test model below. The effect of the test substances on the growth of duck weed is determined by the following method:
The duct weed Lemna paucicostata was grown under sterile conditions and 250 ml glass vessels containing 100 ml of inorganic nutrient solution and supplemented with 1% sucrose, as described by Grossmann et al., Pesticide Science 35, (1992), 283-289. At the beginning of the test, 150 μl of a solution of active compound in acetone (stock solution: 100-fold concentrated) were pipetted into Petri dishes (diameter 6 cm, height 1.5 cm; Greiner, Frickenhausen) containing 15 ml of nutrient solution. (without added sucrose). Only the solvent component of the active compound solution was added to the nutrient solution for the control tests. Then, 4 Lemna plants were introduced into each dish, the dishes were covered with lids and incubated under permanent light conditions at 25° C. After 8-10 days, the increase in leaf area was determined using an imaging apparatus (Imago, Compulog Computer Syst., Böblingen) as growth parameter, and this was used to calculate the growth inhibition as a percentage relative to the control.

[2] = system: Plasmopara viticola; assay: Fungicidal action: activity against Plasmopara viticola on grapevines (persistency); assay type: in vivo; settings: grapevines c.v. Müller-Thurgau, inoculated 7 days after spraying, undersides of leaves assessed visually, untreated control 90
Text: Activity Against Plasmopara viticola
Leaves of potted grapevines c.v. “Müller-Thurgau” were sprayed to run off point with an aqueous preparation of active compound which had been prepared using a stock solution comprising 10% of active compound, 63% of cyclohexanone and 27% of emulsifier. In order to be able to assess the persistency of the substances, the plants were kept for 7 days in a greenhouse after the spray coating had dried on. Only then were the leaves inoculated with an aqueous zoospore suspension of Plasmopara viticola. The grapevines were then initially kept in a water vapor-saturated chamber at 24° C. for 48 hours and then in a greenhouse at 20 and 30° C. for 5 days. After this period of time, the plants were once more kept in a humid chamber for 16 hours to promote sporangiophore eruption. The extent of the infection on the undersides of the leaves was then determined visually.

| SMILES | inhibition at 1 µM ([1]; concentration 1 μmolar) [%] | inhibition at 10 µM ([1]; concentration 10 μmolar) [%] | inhibition at 100 µM ([1]; concentration 100 μmolar) [%] | % infection of the leaves after application of an aqueous preparation containing 250 ppm of active compound [2] [%] |
| --- | --- | --- | --- | --- |
| N#CC(C(=O)Nc1ccc(Cl)c(Cl)c1)c1ccccc1 (stereo not shown) [A, N-(3,4-dichlorophenyl)-2-cyano-2-phenylacetamide] | 40 | 93 | 100 | – |
| N#CC(C(=O)Nc1cccc(Cl)c1)c1ccccc1 (stereo not shown) [No. 2, N-(3-chlorophenyl)-2-cyano-2-phenylacetamide] | – | – | – | 0 |
